# Experimental data published in patent US4016272A, “Anthelmintic thiodiphenylamine cupric chloride complex salt” (priority 1975, dated 1977).
# Legend:
# [1] = test system: helminth infestation diseases; assay: Helminthicide action in laboratory and field conditions on farm animals; assay type: in vivo, sheep, cows, and other farm animals
# Text: The helminthicide action has been studied in laboratory and field conditions on sheep, cows, and other farm animals of different age and having various helminth infestation diseases. The course of treatment comprises a single oral administration of the preparation in spring and a repeated single administration in autumn. The preparation efficiency is 95 to 100% for the cured animals.
# [2] = Lethal dose / toxicity in farm animals; assay type: in vivo; set-up: lethal dose LD50 / LD100: unit not given here
# [3] = meat, milk, and wool
# Text: The known preparations are efficient only in respect to the imaginal forms of certain helminth infestation diseases. The novel preparation based on thiodiphenylamine cupric chloride complex salt is not toxic and is convinient in use.
substance,measurement,setting,value
complex salt of thiodiphenylamine cupric chloride,efficiency for curing various helminth infestation diseases in pre-imaginal and imaginal forms,[1]; pre-imaginal and imaginal forms,highly efficient for curing various helminth infestation diseases in pre-imaginal and imaginal forms
same,preparation efficiency for the cured animals,[1]; single oral administration in spring and repeated single administration in autumn,95 to 100%
same,LD100,[2]; all varieties of farm animals,"1,200"
same,lethal dose LD50,[2]; all varieties of farm animals,"1,000"
same,toxicity,[2]; in vivo,not toxic
same,productivity of farm animals,[3],enhances productivity of farm animals
